Experiments:
Plasmodium falciparum [1] = test: NOVARTIS: Inhibition of Plasmodium falciparum 3D7 (drug-susceptible) proliferation in erythrocyte-based infection assay; type: functional, organism-based; conditions: Plasmodium falciparum, 3D7
Plasmodium falciparum [2] = test: NOVARTIS: Inhibition of Plasmodium falciparum W2 (drug-resistant) proliferation in erythrocyte-based infection assay; type: functional, organism-based; conditions: Plasmodium falciparum, W2; read-out: EC50
[3] = NOVARTIS: Cytotoxicity against human hepatocellular carcinoma cell line (Huh7); type: toxicity, cell-based, Huh-7; conditions: Huh7 cells (hepatocellular carcinoma cell line)

Structure (SMILES)	EC50 (Plasmodium falciparum [1]) [nM]	EC50 (Plasmodium falciparum [2]) [nM]	CC50 [3] [nM]
O=C(c1cc2n(n1)C(C(F)(F)F)CC(c1ccc3c(c1)OCO3)N2)N1CCN(C(c2ccccc2)c2ccccc2)CC1 (centres undefined)	5260	1600	> 100000
COc1cc(NCCCC(C)Nc2ccnc3cc4ccccc4cc23)c2ncccc2c1 (centres undefined)	83.5	49.9	2470
Cc1ccc(N2C(N)=NC(N)=NC2(C)C)cc1	19.3	430	> 100000
COc1ccc(C2CC(=O)C3=C(C2)NC(C)=C(C(=O)OC(C)C)C3c2cccc(Br)c2)cc1OC (centres undefined)	234	41.6	14700
Cc1cc(Nc2ccc(C)c(Cl)c2)n2ncnc2n1	1400	> 927	> 10000
CCCCCCCC(O)(c1ccc(OCC)cc1)C(CN1CCCCC1)c1ccccc1 (centres undefined)	1180	456	> 100000
O=C(c1ccc(N2CC3CC(C2)c2cccc(=O)n2C3)c(NS(=O)(=O)c2ccc3c(c2)OCCO3)c1)N1CCN(c2ccccn2)CC1 (centres undefined)	2020	194	> 100000
C=C[C@H]1CN2CC[C@H]1C[C@@H]2[C@@H](OC(=O)C(C)C)c1ccnc2ccccc12	318	199	> 10000
COc1ccc(C(Cc2ccccc2)NC2CN3CCC2CC3)cc1 (centres undefined)	4260	308	> 65000
O=C1C(N2CCCCC2)=C(N2CCCCC2)C(=O)c2ccccc21	137	34.1	24900
O=C(c1cccc(Cl)c1)N1CCN(c2ccc([N+](=O)[O-])c(NC3CC3)c2)CC1	552	340	> 100000
CC[C@@H](C(=O)[C@@H](C)[C@@H](O)[C@H](C)CCc1ccc(C)c(O)c1C(=O)O)[C@H]1O[C@](CC)([C@H]2CC[C@](O)(CC)[C@@H](C)O2)C[C@@H]1C	726	468	> 10000
COCCn1c(=S)[nH]c2cc(C(=O)NCCc3ccc(S(N)(=O)=O)cc3)ccc2c1=O	> 1080	> 1250	> 10000
CN(C)c1ccc(N/C=C/C(=O)C(C)(C)C)cc1	1450	1580	> 10000
CCN(CC)CCNC(=O)C1c2ccccc2C(=O)N(Cc2ccc(F)cc2)C1c1ccc(OC)cc1 (centres undefined)	782	2420	46400
CCCN(CCC)S(=O)(=O)c1cc(Br)cc2c1N(C(C)=O)CC2	1990	561	> 100000
CC(C)C1Oc2cc3oc(=O)ccc3cc2C1=NO (centres undefined)	> 1150	743	> 10000

Structure (SMILES)	EC50 (Plasmodium falciparum [1]) [nM]	EC50 (Plasmodium falciparum [2]) [nM]	CC50 [3] [nM]
CN1C=CC=C/C1=C\C=C1\C=Nc2ccccc21	276	223	> 10000
O=C(Nc1ccc(Cl)cc1)c1c2c(nc3ccccc13)-c1ccccc1CC2	410	338	> 100000
CC1(C)Oc2ccc(C(=O)N3CCCC3)cc2N(CCc2ccccc2)C1=O	> 1120	1870	> 10000
CCC(CC)CN1CCC(O)(c2ccc3oc(C(=O)Nc4ccc(OC)c(OC)c4)cc3c2)CC1	344	360	> 85800
CCC1=NN2C(=N)/C(=C/c3cn(CCOc4ccccc4C(C)CC)c4ccccc34)C(=O)N=C2S1 (centres undefined)	> 1250	> 865	> 10000
COc1ccc(NC(=O)COc2ccccc2C(C)C)c(OC)c1	7950	> 12500	> 100000
CCOC(=O)N1CCN(S(=O)(=O)c2ccc(C(=O)Nc3sc4c(c3C(N)=O)CCN(CC)C4)cc2)CC1	> 12500	1390	20400
CCN(Cc1ccccc1)Cc1c(O)ccc2oc(C)c(C(=O)Nc3ccc(C)cc3C)c12	3490	2100	42300
CCN1c2ccccc2N(C)C1(C)c1ccccc1 (centres undefined)	46.5	49.3	28800
C=CCNC(=O)c1ccc2c(c1)N=CN(CCOc1ccccc1)C2	441	419	> 10000
CCC[P+](CCC)(CCC)CC1OCc2ccccc2CO1	1800	3600	> 100000
CN(Cc1cc(-c2ccc(F)cc2)ccc1O)CC(O)c1ccccc1 (centres undefined)	223	14.2	> 70900
Nc1ccc(N2CCCCCC2)cc1	153	183	> 100000
Cc1ccc(NC(=O)CSc2nc3cc(C(=O)NCCCOC(C)C)ccc3c(=O)n2Cc2ccco2)cc1Cl	1940	340	> 10000
OC(CN1CCN(Cc2ccccc2)CC1)Cn1c2ccc(I)cc2c2cc(I)ccc21 (centres undefined)	651	148	20100
CCOc1ccc(C=C(C#N)c2nc3ccccc3[nH]2)cc1OC	516	263	> 100000

Source: ChEMBL document CHEMBL1156829 (Proc Natl Acad Sci U S A, 2008)
